According to US9593108B2, “Compounds and methods for antiviral treatment” (PTC Therapeutics, Inc., priority 2009, dated 2017):

What was measured:
[1] = tested on: HCV replicon RNA (GenBank Accession No. AJ242654); assay: HCV Replicon Assay (replicon RNA reduction and/or Fluc reporter signal); type: cell-based, Hepatitis C virus; conditions: Hepatitis C virus, 72 h, replicon-containing cells cultured with test compound for up to 3 days
Outline: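 Bicistronic replicon-containing cells cultured with compound for up to 3 days, with interferon as positive control. Inhibition quantified by replicon RNA reduction and/or Fluc reporter signal; IC50 values generally derived from replicon RNA reduction.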

Work on `N#Cc1c(-c2ccc(NS(=O)(=O)C3CC3)cc2)n(C2CCC2)c2ncc(C(F)F)cc12` [Cpd 460, N-{4-[3-cyano-1-cyclobutyl-5-(difluoromethyl)-1H-pyrrolo[2,3-b]pyridin-2-yl]phenyl}cyclopropanesulfonamide] yielded an IC50 [1] of less than 500 nM and a melting point of 193 to 195 °C.

`C[C@H](NS(=O)(=O)c1ccc(-c2c(C#N)c3cc(F)cnc3n2-c2cc(F)ccn2)nc1)C(F)(F)F` [Cpd 461, 6-[3-cyano-5-fluoro-1-(4-fluoropyridin-2-yl)-1H-pyrrolo[2,3-b]pyridin-2-yl]-N-[(2S)-1,1,1-trifluoropropan-2-yl]pyridine-3-sulfonamide] gave an IC50 [1] of less than 500 nM and a melting point of 186 to 188 °C.

`C[C@H](NS(=O)(=O)c1ccc(-c2c(C#N)c3cc(F)cnc3n2-c2ncc(F)cn2)nc1)C(F)(F)F` [Cpd 462, 6-[3-cyano-5-fluoro-1-(5-fluoropyrimidin-2-yl)-1H-pyrrolo[2,3-b]pyridin-2-yl]-N-[(2S)-1,1,1-trifluoropropan-2-yl]pyridine-3-sulfonamide] gave an IC50 [1] of less than 500 nM and a melting point of 180 to 182 °C.

In the case of `Cc1cnc2c(C#N)c(-c3ccc(S(=O)(=O)N[C@@H](C)C(F)(F)F)cn3)n(-c3cnccn3)c2c1` [Cpd 463, 6-[3-cyano-6-methyl-1-(pyrazin-2-yl)-1H-pyrrolo[3,2-b]pyridin-2-yl]-N-[(2S)-1,1,1-trifluoropropan-2-yl]pyridine-3-sulfonamide], the IC50 [1] is reported as less than 500 nM and the melting point is reported as 288 to 289 °C.

Compound `Cc1cnc2c(C#N)c(-c3ccc(S(=O)(=O)N[C@@H](C)C(F)(F)F)cn3)n(-c3cncnc3)c2c1` [Cpd 464, 6-[3-cyano-6-methyl-1-(pyrimidin-5-yl)-1H-pyrrolo[3,2-b]pyridin-2-yl]-N-[(2S)-1,1,1-trifluoropropan-2-yl]pyridine-3-sulfonamide] has an IC50 [1] of 2000 to 5000 nM and a melting point of 229 to 230 °C.

`Cc1cnc2c(C#N)c(-c3ccc(S(=O)(=O)N[C@@H](C)C(F)(F)F)cn3)n(-c3ccccn3)c2c1` [Cpd 465, 6-[3-cyano-6-methyl-1-(pyridin-2-yl)-1H-pyrrolo[3,2-b]pyridin-2-yl]-N-[(2S)-1,1,1-trifluoropropan-2-yl]pyridine-3-sulfonamide] gave an IC50 [1] of less than 500 nM and a melting point of 242 to 244 °C.

`Cc1cnc2c(C#N)c(-c3ccc(S(=O)(=O)N[C@@H](C)C(F)(F)F)cn3)n(-c3cccnc3)c2c1` [Cpd 466, 6-[3-cyano-6-methyl-1-(pyridin-3-yl)-1H-pyrrolo[3,2-b]pyridin-2-yl]-N-[(2S)-1,1,1-trifluoropropan-2-yl]pyridine-3-sulfonamide] showed an IC50 [1] of less than 500 nM and a melting point of 278 to 279 °C.

`Cc1cnc2c(C#N)c(-c3ccc(S(=O)(=O)N[C@@H](C)C(F)(F)F)cn3)n(-c3ccc(F)cn3)c2c1` [Cpd 467, 6-[3-cyano-1-(5-fluoropyridin-2-yl)-6-methyl-1H-pyrrolo[3,2-b]pyridin-2-yl]-N-[(2S)-1,1,1-trifluoropropan-2-yl]pyridine-3-sulfonamide] showed an IC50 [1] of less than 500 nM and a melting point of 263 to 265 °C.

For `Cc1cnc2c(C#N)c(-c3ccc(S(=O)(=O)N[C@@H](C)C(F)(F)F)cn3)n(-c3cscn3)c2c1` [Cpd 468, 6-[3-cyano-6-methyl-1-(1,3-thiazol-4-yl)-1H-pyrrolo[3,2-b]pyridin-2-yl]-N-[(2S)-1,1,1-trifluoropropan-2-yl]pyridine-3-sulfonamide], the IC50 [1] was less than 500 nM and the melting point was 244 to 245 °C.

`C[C@H](NS(=O)(=O)c1ccc(-c2c(C(N)=O)c3cc(C(F)F)cnc3n2C2CCC2)nc1)C(F)(F)F` [Cpd 469, 1-cyclobutyl-5-(difluoromethyl)-2-(5-{[(2S)-1,1,1-trifluoropropan-2-yl]sulfamoyl}pyridin-2-yl)-1H-pyrrolo[2,3-b]pyridine-3-carboxamide] gave an IC50 [1] of less than 500 nM and a melting point of 206 to 208 °C.

`C[C@H](NS(=O)(=O)c1cnc(-c2c(C(N)=O)c3cc(C(F)F)cnc3n2C2CCC2)nc1)C(F)(F)F` [Cpd 470, 1-cyclobutyl-5-(difluoromethyl)-2-(5-{[(2S)-1,1,1-trifluoropropan-2-yl]sulfamoyl}pyrimidin-2-yl)-1H-pyrrolo[2,3-b]pyridine-3-carboxamide] showed an IC50 [1] of less than 500 nM and a melting point of 199 to 201 °C.

`CC(C)(NS(=O)(=O)c1ccc(-c2c(C(N)=O)c3cc(C(F)F)cnc3n2C2CCC2)nc1)C(F)(F)F` [Cpd 471, 1-cyclobutyl-5-(difluoromethyl)-2-{5-[(1,1,1-trifluoro-2-methylpropan-2-yl)sulfamoyl]pyridin-2-yl}-1H-pyrrolo[2,3-b]pyridine-3-carboxamide] showed an IC50 [1] of less than 500 nM and a melting point of 205 to 207 °C.

Work on `NC(=O)c1c(-c2ccc(S(=O)(=O)NC3(C(F)(F)F)CC3)cn2)n(C2CCC2)c2ncc(C(F)F)cc12` [Cpd 472, 1-cyclobutyl-5-(difluoromethyl)-2-(5-{[1-(trifluoromethyl)cyclopropyl]sulfamoyl}pyridin-2-yl)-1H-pyrrolo[2,3-b]pyridine-3-carboxamide] yielded an IC50 [1] of less than 500 nM and a melting point of 210 to 212 °C.

Work on `CCc1cnc2c(c1)c(C#N)c(-c1ccc(S(=O)(=O)N[C@@H](C)C(F)(F)F)cn1)n2-c1ncc(F)cn1` [Cpd 473, 6-[3-cyano-5-ethyl-1-(5-fluoropyrimidin-2-yl)-1H-pyrrolo[2,3-b]pyridin-2-yl]-N-[(2S)-1,1,1-trifluoropropan-2-yl]pyridine-3-sulfonamide] yielded an IC50 [1] of less than 500 nM and a melting point of 175 to 177 °C.

Work on `CCc1cnc2c(c1)c(C#N)c(-c1ccc(S(=O)(=O)N[C@@H](C)C(F)(F)F)cn1)n2-c1ccc(F)cn1` [Cpd 474, 6-[3-cyano-5-ethyl-1-(5-fluoropyridin-2-yl)-1H-pyrrolo[2,3-b]pyridin-2-yl]-N-[(2S)-1,1,1-trifluoropropan-2-yl]pyridine-3-sulfonamide] yielded an IC50 [1] of less than 500 nM and a melting point of 175 to 177 °C.

`Cc1cnc2c(C#N)c(-c3ccc(S(=O)(=O)N[C@@H](C)C(F)(F)F)cn3)n(-c3ncccn3)c2c1` [Cpd 475, 6-[3-cyano-6-methyl-1-(pyrimidin-2-yl)-1H-pyrrolo[3,2-b]pyridin-2-yl]-N-[(2S)-1,1,1-trifluoropropan-2-yl]pyridine-3-sulfonamide] gave an IC50 [1] of less than 500 nM and a melting point of 226 to 228 °C.

In the case of `Cc1cnc2c(C#N)c(-c3ccc(S(=O)(=O)N[C@@H](C)C(F)(F)F)cn3)n(-c3ccccc3)c2c1` [Cpd 476, 6-(3-cyano-6-methyl-1-phenyl-1H-pyrrolo[3,2-b]pyridin-2-yl)-N-[(2S)-1,1,1-trifluoropropan-2-yl]pyridine-3-sulfonamide], the IC50 [1] is reported as less than 500 nM and the melting point is reported as 245 to 247 °C.

Compound `Cc1cnc2c(C#N)c(-c3ccc(S(=O)(=O)N[C@@H](C)C(F)(F)F)cn3)n(-c3nccs3)c2c1` [Cpd 477, 6-[3-cyano-6-methyl-1-(1,3-thiazol-2-yl)-1H-pyrrolo[3,2-b]pyridin-2-yl]-N-[(2S)-1,1,1-trifluoropropan-2-yl]pyridine-3-sulfonamide] has an IC50 [1] of less than 500 nM and a melting point of 230 to 232 °C.

Compound `Cc1cnc2c(C#N)c(-c3ccc(S(=O)(=O)N[C@@H](C)C(F)(F)F)cn3)n(-c3cncs3)c2c1` [Cpd 478, 6-[3-cyano-6-methyl-1-(1,3-thiazol-5-yl)-1H-pyrrolo[3,2-b]pyridin-2-yl]-N-[(2S)-1,1,1-trifluoropropan-2-yl]pyridine-3-sulfonamide] has an IC50 [1] of 500 to 2000 nM and a melting point of 273 to 275 °C.

Compound `Cc1cnc2c(C#N)c(-c3ccc(S(=O)(=O)N[C@@H](C)C(F)(F)F)cn3)n(-c3cc(C(F)(F)F)ccn3)c2c1` [Cpd 479, 6-{3-cyano-6-methyl-1-[4-(trifluoromethyl)pyridin-2-yl]-1H-pyrrolo[3,2-b]pyridin-2-yl}-N-[(2S)-1,1,1-trifluoropropan-2-yl]pyridine-3-sulfonamide] has an IC50 [1] of 500 to 2000 nM and a melting point of 245 to 246 °C.

In the case of `Cc1cnc2c(C#N)c(-c3ccc(S(=O)(=O)N[C@@H](C)C(F)(F)F)cn3)n(-c3ccnnc3)c2c1` [Cpd 480, 6-[3-cyano-6-methyl-1-(pyridazin-4-yl)-1H-pyrrolo[3,2-b]pyridin-2-yl]-N-[(2S)-1,1,1-trifluoropropan-2-yl]pyridine-3-sulfonamide], the IC50 [1] is reported as 2000 to 5000 nM and the melting point is reported as 283 to 285 °C.

In the case of `Cc1cnc2c(C#N)c(-c3ccc(S(=O)(=O)N[C@@H](C)C(F)(F)F)cn3)n(-c3ccncn3)c2c1` [Cpd 481, 6-[3-cyano-6-methyl-1-(pyrimidin-4-yl)-1H-pyrrolo[3,2-b]pyridin-2-yl]-N-[(2S)-1,1,1-trifluoropropan-2-yl]pyridine-3-sulfonamide], the IC50 [1] is reported as less than 500 nM and the melting point is reported as 265 to 267 °C.

Compound `Cc1cnc2c(C#N)c(-c3ccc(S(=O)(=O)N[C@@H](C)C(F)(F)F)cn3)n(-c3ccncc3)c2c1` [Cpd 482, 6-[3-cyano-6-methyl-1-(pyridin-4-yl)-1H-pyrrolo[3,2-b]pyridin-2-yl]-N-[(2S)-1,1,1-trifluoropropan-2-yl]pyridine-3-sulfonamide] has an IC50 [1] of less than 500 nM and a melting point of 303 to 305 °C.

For `Cc1cnc2c(c1)c(C#N)c(-c1ccc(S(=O)(=O)N[C@@H](C)C(F)(F)F)cc1)n2C` [Cpd 483, 4-(3-cyano-1,5-dimethyl-1H-pyrrolo[2,3-b]pyridin-2-yl)-N-[(2S)-1,1,1-trifluoropropan-2-yl]benzenesulfonamide], the IC50 [1] was 500 to 2000 nM and the melting point was 165 to 170 °C.

`CCn1c(-c2ccc(S(=O)(=O)N[C@@H](C)C(F)(F)F)cc2)c(C#N)c2cc(C)cnc21` [Cpd 484, 4-(3-cyano-1-ethyl-5-methyl-1H-pyrrolo[2,3-b]pyridin-2-yl)-N-[(2S)-1,1,1-trifluoropropan-2-yl]benzenesulfonamide] gave an IC50 [1] of 500 to 2000 nM and a melting point of 147 to 152 °C.

With `CCCn1c(-c2ccc(S(=O)(=O)N[C@@H](C)C(F)(F)F)cc2)c(C#N)c2cc(C)cnc21` [Cpd 485, 4-(3-cyano-5-methyl-1-propyl-1H-pyrrolo[2,3-b]pyridin-2-yl)-N-[(2S)-1,1,1-trifluoropropan-2-yl]benzenesulfonamide] the IC50 [1] was less than 500 nM and the melting point was 235 to 240 °C.
